Earlier results in patent publication US7759338B2, “Soluble 1,4 benzodiazepine compounds and stable salts thereof” (The Regents of the University of Michigan, priority 2006, dated 2010).

Tests used:
[1] = target: mitochondrial F1Fo-ATPase; conditions: F1Fo-ATPase inhibition
rodents = conditions: two daily doses

In the case of CC[C@H]1/C=C/C=C/C[C@@H](C)[C@H](O)[C@@](C)(O)C(=O)[C@@H](C)[C@H](O)[C@@H](C)C(=O)[C@@H](C)[C@H](O)[C@@H](C)/C=C/C(=O)O[C@@H]2[C@H](C)[C@H](CC1)O[C@]1(CC[C@H](C)[C@H](C[C@@H](C)O)O1)[C@H]2C [oligomycin], the IC50 [1] is given as 10 nM and the LD50 (rodents) is given as 0.5 mg/kg.
